Values of other authors as cited in patent US20220275055A1, “DRUG TARGET OF IDIOPATHIC PULMONARY FIBROSIS” (National Institute of Biological Sciences, Beijing, priority 2019, published 2022).

Conditions: idiopathic pulmonary fibrosis (IPF); background statement

SMILES: COC(=O)c1ccc2c(c1)NC(=O)/C2=C(\Nc1ccc(N(C)C(=O)CN2CCN(C)CC2)cc1)c1ccccc1 [nintedanib]
- survival time: failed to show significantly increased survival time

SMILES: Cc1ccc(=O)n(-c2ccccc2)c1 [pirfenidone]
- survival time: failed to show significantly increased survival time
